Test results published in ChEMBL document CHEMBL2429821, “A Casein kinase 1/Checkpoint kinase 1 pyrazolo-pyridine protein kinase inhibitor as novel activator of the p53 pathway” (Bioorg Med Chem Lett, 2013).
Calls of active or inactive are those of the source. No cut-off for these calls is given here.

Key:
[1] = test system: A-375; assay: Cell cycle arrest in human A375 cells assessed as accumulation at S phase at 5 uM after 48 hrs by FACS flow cytometric analysis (reference value: 25.1%); type: functional
[2] = test system: A-375; assay: Cytotoxicity against human A375 cells assessed as cell viability after 24 hrs by MTT assay; type: functional, cell-based; settings: A-375, 24 h
[3] = test system: A-375; assay: Cell cycle arrest in human A375 cells assessed as accumulation at S phase at 20 uM after 48 hrs by FACS flow cytometric analysis (reference value: 25.1%); type: functional
[4] = molecular target: Mitogen-activated protein kinase 15 (Homo sapiens, UniProt Q8TD08); assay: Inhibition of human ERK8 in presence of 5 uM ATP
[5] = test system: A-375; assay: Cell cycle arrest in human A375 cells assessed as accumulation at sub-G1 phase at 40 uM after 48 hrs by FACS flow cytometric analysis (reference value: 2.17%); type: functional
[6] = molecular target: T1, Casein kinase I/MDM2 (Homo sapiens) (UniProt Q00987+P48729); assay: Inhibition of CK1-MDM2 complex in human A375 cells assessed as increase in MDM2 protein level at 0.2 to 5 uM after 48 hrs by immunoblotting analysis; type: cell-based; settings: A-375
[7] = test system: A-375; assay: Cell cycle arrest in human A375 cells assessed as accumulation at sub-G1 phase at 5 uM after 48 hrs by FACS flow cytometric analysis (reference value: 2.17%); type: functional
[8] = test system: A-375; assay: Cell cycle arrest in human A375 cells assessed as accumulation at G2-M phase at 10 uM after 48 hrs by FACS flow cytometric analysis (reference value: 17.3%); type: functional
[9] = test system: A-375; assay: Cell cycle arrest in human A375 cells assessed as accumulation at G0-G1 phase at 1 uM after 48 hrs by FACS flow cytometric analysis (reference value: 55.4%); type: functional
[10] = test system: A-375; assay: Cytotoxicity against human A375 cells assessed as reduction in cell number at 5 uM after 24 hrs by light microscopic analysis relative to control; type: functional, cell-based
[11] = test system: A-375; assay: Cell cycle arrest in human A375 cells assessed as accumulation at G0-G1 phase at 40 uM after 48 hrs by FACS flow cytometric analysis (reference value: 55.4%); type: functional
[12] = test system: A-375; assay: Cell cycle arrest in human A375 cells assessed as accumulation at sub-G1 phase at 1 uM after 48 hrs by FACS flow cytometric analysis (reference value: 2.17%); type: functional
[13] = molecular target: T1, Casein kinase I/MDM2 (Homo sapiens); assay: Inhibition of CK1-MDM2 complex in human A375 cells assessed as increase in p21 protein level at 0.2 to 5 uM after 48 hrs by immunoblotting analysis; type: cell-based; settings: A-375
[14] = test system: A-375; assay: Cell cycle arrest in human A375 cells assessed as accumulation at G2-M phase at 40 uM after 48 hrs by FACS flow cytometric analysis (reference value: 17.3%); type: functional
[15] = test system: A-375; assay: Cell cycle arrest in human A375 cells assessed as accumulation at G2-M phase at 20 uM after 48 hrs by FACS flow cytometric analysis (reference value: 17.3%); type: functional
[16] = test system: A-375; assay: Cell cycle arrest in human A375 cells assessed as accumulation at S phase at 1 uM after 48 hrs by FACS flow cytometric analysis (reference value: 25.1%); type: functional
[17] = test system: HCT-116; assay: Cytotoxicity against human HCT116 cells expressing p53 assessed as cell viability at 1 to 32 uM after 24 hrs by MTT assay; type: functional, cell-based
[18] = molecular target: T1, Casein kinase I/MDM2 (Homo sapiens); assay: Inhibition of CK1-MDM2 complex in human A375 cells assessed as decrease in […] protein level at 0.2 to 5 uM after 48 hrs by immunoblotting analysis; type: cell-based; settings: A-375
[19] = molecular target: Serine/threonine-protein kinase Nek2 (Homo sapiens, UniProt P51955); assay: Inhibition of human NEK2alpha in presence of 50 uM ATP
[20] = test system: A-375; assay: Cell cycle arrest in human A375 cells assessed as accumulation at G2-M phase at 1 uM after 48 hrs by FACS flow cytometric analysis (reference value: 17.3%); type: functional
[21] = test system: A-375; assay: Cell cycle arrest in human A375 cells assessed as accumulation at S phase at 10 uM after 48 hrs by FACS flow cytometric analysis (reference value: 25.1%); type: functional
[22] = test system: A-375; assay: Cell cycle arrest in human A375 cells assessed as accumulation at sub-G1 phase at 10 uM after 48 hrs by FACS flow cytometric analysis (reference value: 2.17%); type: functional
[23] = test system: A-375; assay: Cell cycle arrest in human A375 cells assessed as accumulation at sub-G1 phase at 20 uM after 48 hrs by FACS flow cytometric analysis (reference value: 2.17%); type: functional
[24] = test system: A-375; assay: Cytotoxicity against human A375 cells assessed as reduction in cell number at 40 uM after 24 hrs by light microscopic analysis relative to control; type: functional, cell-based
[25] = molecular target: T1, Casein kinase I/MDM2 (Homo sapiens); assay: Inhibition of CK1-MDM2 complex in human A375 cells assessed as effect on p53 protein level at 0.2 to 80 uM after 48 hrs by immunoblotting analysis; type: cell-based; settings: A-375
[26] = molecular target: T1, Casein kinase I/MDM2 (Homo sapiens); assay: Inhibition of CK1-MDM2 complex in human A375 cells assessed as effect on MDM2 protein level at 0.2 to 80 uM after 48 hrs by immunoblotting analysis; type: cell-based; settings: A-375
[27] = molecular target: T1, Casein kinase I/MDM2 (Homo sapiens); assay: Inhibition of CK1-MDM2 complex in human A375 cells assessed as increase in p21 protein level at 5 to 40 uM compound transfected into cells using attractene carrier after 48 hrs by immunoblotting analysis; type: cell-based; settings: A-375
[28] = molecular target: T1, Casein kinase I/MDM2 (Homo sapiens); assay: Inhibition of CK1-MDM2 complex in human A375 cells assessed as increase in p53 protein level at 5 to 40 uM compound transfected into cells using attractene carrier after 48 hrs by immunoblotting analysis; type: cell-based; settings: A-375
[29] = molecular target: T1, Casein kinase I/MDM2 (Homo sapiens); assay: Inhibition of CK1-MDM2 complex in human A375 cells assessed as effect on p21 protein level at 0.2 to 80 uM after 48 hrs by immunoblotting analysis; type: cell-based; settings: A-375
[30] = molecular target: T1, Casein kinase I/MDM2 (Homo sapiens); assay: Inhibition of CK1-MDM2 complex in human A375 cells assessed as increase in […] protein level at 0.2 to 40 uM after 24 hrs by immunoblotting analysis; type: cell-based; settings: A-375
[31] = molecular target: Mitogen-activated protein kinase 14 (Homo sapiens, UniProt Q16539); assay: Inhibition of human p38alpha MAPK assessed as residual activity at 10 uM relative to control
[32] = molecular target: T1, Casein kinase I/MDM2 (Homo sapiens); assay: Inhibition of CK1-MDM2 complex in human A375 cells assessed as decrease in MDM2 protein level at 0.2 to 40 uM after 24 hrs by immunoblotting analysis; type: cell-based; settings: A-375
[33] = molecular target: T1, Casein kinase I/MDM2 (Homo sapiens); assay: Inhibition of CK1-MDM2 complex in human A375 cells assessed as increase in p53 protein level at 0.2 to 40 uM after 24 hrs by immunoblotting analysis; type: cell-based; settings: A-375

T1 sequence (P48729 whole entry, looked up): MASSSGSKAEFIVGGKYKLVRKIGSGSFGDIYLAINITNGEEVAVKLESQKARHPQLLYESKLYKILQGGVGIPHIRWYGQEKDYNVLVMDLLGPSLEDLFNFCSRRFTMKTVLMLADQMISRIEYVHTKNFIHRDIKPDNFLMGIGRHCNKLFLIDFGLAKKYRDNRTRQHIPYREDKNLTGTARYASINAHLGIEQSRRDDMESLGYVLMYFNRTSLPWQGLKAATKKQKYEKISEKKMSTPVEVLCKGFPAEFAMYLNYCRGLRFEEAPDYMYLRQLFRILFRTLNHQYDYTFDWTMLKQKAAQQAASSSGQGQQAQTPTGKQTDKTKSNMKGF
T1 sequence (Q00987 whole entry, looked up): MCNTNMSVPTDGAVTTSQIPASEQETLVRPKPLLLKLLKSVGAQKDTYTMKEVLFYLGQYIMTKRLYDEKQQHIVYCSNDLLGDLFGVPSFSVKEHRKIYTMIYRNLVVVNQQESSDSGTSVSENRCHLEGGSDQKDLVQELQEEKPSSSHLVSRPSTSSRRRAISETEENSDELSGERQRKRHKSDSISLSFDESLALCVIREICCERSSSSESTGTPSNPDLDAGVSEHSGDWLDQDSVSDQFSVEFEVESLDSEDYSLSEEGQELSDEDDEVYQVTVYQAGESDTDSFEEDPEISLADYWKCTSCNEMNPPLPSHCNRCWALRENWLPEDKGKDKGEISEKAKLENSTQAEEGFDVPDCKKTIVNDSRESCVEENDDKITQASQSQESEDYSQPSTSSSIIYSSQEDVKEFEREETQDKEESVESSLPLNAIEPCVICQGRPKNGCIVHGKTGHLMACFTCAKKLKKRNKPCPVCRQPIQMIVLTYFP
Chain of Mitogen-activated protein kinase 15 (Q8TD08 whole entry): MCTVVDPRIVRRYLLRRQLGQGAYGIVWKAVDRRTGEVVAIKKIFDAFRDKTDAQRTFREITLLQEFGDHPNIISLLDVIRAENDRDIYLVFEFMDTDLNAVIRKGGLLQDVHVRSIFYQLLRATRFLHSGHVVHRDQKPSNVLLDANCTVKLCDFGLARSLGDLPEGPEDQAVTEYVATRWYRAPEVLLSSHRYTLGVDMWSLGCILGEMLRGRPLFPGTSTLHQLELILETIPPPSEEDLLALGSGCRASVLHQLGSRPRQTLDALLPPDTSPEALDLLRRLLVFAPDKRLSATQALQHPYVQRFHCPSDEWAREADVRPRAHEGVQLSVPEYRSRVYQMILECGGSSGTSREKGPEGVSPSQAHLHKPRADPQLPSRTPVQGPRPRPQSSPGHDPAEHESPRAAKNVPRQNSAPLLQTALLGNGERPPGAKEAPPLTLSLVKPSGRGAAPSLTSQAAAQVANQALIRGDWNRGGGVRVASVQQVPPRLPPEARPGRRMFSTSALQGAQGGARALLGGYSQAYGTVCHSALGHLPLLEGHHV
Chain of Mitogen-activated protein kinase 14 (Q16539 whole entry): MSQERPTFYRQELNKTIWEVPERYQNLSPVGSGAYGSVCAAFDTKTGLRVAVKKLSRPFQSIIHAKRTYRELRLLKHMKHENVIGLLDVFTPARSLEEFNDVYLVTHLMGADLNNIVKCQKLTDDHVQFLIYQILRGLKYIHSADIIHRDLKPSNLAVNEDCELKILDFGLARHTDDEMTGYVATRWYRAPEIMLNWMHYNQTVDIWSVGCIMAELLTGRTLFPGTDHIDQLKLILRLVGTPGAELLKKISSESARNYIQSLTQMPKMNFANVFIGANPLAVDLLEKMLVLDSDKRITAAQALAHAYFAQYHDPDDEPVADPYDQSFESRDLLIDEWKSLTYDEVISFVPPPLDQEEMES
Chain of Serine/threonine-protein kinase Nek2 (P51955 whole entry): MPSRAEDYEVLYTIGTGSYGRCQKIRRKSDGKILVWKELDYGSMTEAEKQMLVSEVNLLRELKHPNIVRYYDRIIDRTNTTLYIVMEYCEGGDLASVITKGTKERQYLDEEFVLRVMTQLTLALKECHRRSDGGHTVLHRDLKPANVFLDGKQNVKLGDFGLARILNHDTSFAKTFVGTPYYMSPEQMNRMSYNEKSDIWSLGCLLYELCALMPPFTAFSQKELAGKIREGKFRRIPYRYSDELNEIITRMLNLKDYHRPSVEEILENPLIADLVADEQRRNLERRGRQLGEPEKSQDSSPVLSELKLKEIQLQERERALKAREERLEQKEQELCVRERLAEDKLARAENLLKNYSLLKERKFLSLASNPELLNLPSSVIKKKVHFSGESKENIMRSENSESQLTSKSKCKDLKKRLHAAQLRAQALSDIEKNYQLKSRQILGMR

CC(=O)Nc1cccc(-c2cnc3[nH]nc(C)c3c2)c1
Activity [1]: 13.7% | IC50 [2]: 8 µM | Activity [3]: 14.2% | IC50 [4]: 0.4 µM | Activity [5]: 56.7% | inhibition [6]: Active | Activity [7]: 19.1% | Activity [8]: 12.8% | Activity [9]: 57.7% | Activity [10]: Active | Activity [11]: 16.9% | Activity [12]: 2.37% | inhibition [13]: Active | Activity [14]: 8.54% | Activity [15]: 9.65% | Activity [16]: 21.6% | Activity [17]: Active | inhibition [18]: Active | IC50 [19]: 2 µM | Activity [20]: 17.8% | Activity [21]: 12.6% | Activity [22]: 34.3% | Activity [23]: 50.5%

CC(=O)Nc1nccc(-c2c(-c3ccccc3)noc2C)n1
Activity [24]: inactive | inhibition [25]: inactive | inhibition [26]: inactive | inhibition [27]: inactive | inhibition [28]: inactive | inhibition [29]: inactive

CCCC(=O)Nc1n[nH]c2ncc(-c3cccnc3)cc12
inhibition [30]: Active | Activity [31]: 91% | inhibition [32]: Active | inhibition [33]: Active
